Results: patent US20230226040A1, “COMBINATION THERAPY COMPRISING AN FGFR INHIBITOR AND A KRAS INHIBITOR” (Incyte Corporation, priority 2021, published 2023)

What was measured:
Assay type in all cases: cell-based
[1] = tested on: H358; test: 5-day Cell Titer Glo combination matrix, Bliss score; conditions: H358 (Lung, Epithelial), 5 days
Method: (§3) Cells were seeded in RPMI medium with 10% HI FBS at a density of 500 cells/well in Greiner, white, clear bottom, 384-well tissue culture treated plates containing 10×10 combination matrices of compound. Plates were incubated at 37° C., 5% CO2 for 5 days. On day 5, Cell Titer Glo reagent was added to the plates and ATP luminescence was detected using a Pherastar FSX reader. The synergy score for the combination effect was calculated using a Bliss score model where the Bliss score=Yab-(Ya+Yb−(YaYb))×100, where Ya and Yb are the monotherapies. Bliss scores >20 are strongly synergistic and a higher Bliss scores indicates a higher level of synergism.
(§4) Cells were seeded in RPMI medium with 10% HI FBS at a density of 500 cells/well in Greiner, white, clear bottom, 384-well tissue culture treated plates containing 10×10 combination matrices of compound. Plates were incubated at 37° C., 5% CO2 for 5 days. On day 5, Cell Titer Glo reagent was added to the plates and ATP luminescence was detected using a Pherastar FSX reader. Synergy score for the combination effect is calculated using a Bliss score model where the Bliss score=Yab−(Ya+Yb−(YaYb))×100, where Ya and Yb are the monotherapies. Bliss scores >20 are strongly synergistic and a higher Bliss scores indicates a higher level of synergism.
(§5) Cells were seeded in RPMI medium with 10% HI FBS at a density of 500 cells/well in Greiner, white, clear bottom, 384-well tissue culture treated plates containing 10×10 combination matrices of compound. Plates were incubated at 37° C., 5% CO2 for 5 days. On day 5, Cell Titer Glo reagent was added to the plates and ATP luminescence was detected using a Pherastar FSX reader. The synergy score for the combination effect was calculated using a Bliss score model where the Bliss score=Yab−(Ya+Yb−(YaYb))×100, where Ya and Yb are the monotherapies. Bliss scores >20 are strongly synergistic and a higher Bliss scores indicates a higher level of synergism.

[2] = tested on: H1792; test: as above; conditions: H1792 (Lung, Mesenchymal), 5 days
Method: as §3, §4, §5

[3] = tested on: LU-99; test: as above; conditions: LU-99 (Lung, Mesenchymal); FGFR inhibitor in combination with Cmpd 3; 5 days
Method: as §4, §5

[4] = tested on: SW-1573; test: as above; conditions: SW-1573 (Lung, Mesenchymal), 5 days
Method: as §3, §4, §5

[5] = tested on: HCC-44; test: as above; conditions: HCC-44 (Lung, Mesenchymal); KRAS inhibitor in combination with pemigatinib; 5 days
Method: as §3, §5

[6] = tested on: LU99 cells; test: siRNA FGFR knockdown plus KRAS G12C inhibitor, Cell Titer Glo proliferation; conditions: in the absence of FGFR1 or FGFR4; 120 h
Method: Knockdown efficiency was assessed by Western blot and its effect was measured by cell proliferation inhibition.
(§1) The lyophilized siRNA pools or individuals (Dharmacon ON-TARGET plus siRNA from Horizon Discovery) were reconstituted by combining 1× siRNA buffer (200 μL) with lyophilized siRNA (20 nmol); or combining 1× siRNA buffer (100 μL) with lyophilized siRNA (10 nmol). Dharmafect Reagent 1 was prepared at a 1:200 dilution in 1X siRNA buffer. One tube of diluted reagent was prepared for each siRNA dilution. To each tube, the appropriate siRNA was added to Dharmafect Reagent 1 at a 1:400 dilution. The prepared siRNA reagent (25 per well) was added to the appropriate number of wells on a 96-well clear bottom Greiner plate and incubated at room temperature for 30 min.
For plating in 96-well pates, 2000 LU99 cells per well in 100 μL of medium were prepared. The prepared cells (100 μL per well) were added to each well of the 96-well plate and incubated at 48 h.
(§2) Compound plates were prepared with a compound starting concentration of 5 mM in a 3-fold dilution. Following 48 h transfection incubation, the appropriate compounds were added to the 96-well plate at a final starting concentration of 5 μM in 3-fold dilution (11 point dose response curve). After addition of the compounds, the 96-well plates were incubated at 37° C. for 120 h. After this time, Cell Titer Glo reagent is reconstituted and 100 μL of reagent was added per well. The plates were tapped gently and luminescence was read on a Pherastar microplate reader.

[7] = tested on: SW-837; test: 5-day Cell Titer Glo combination matrix, Bliss score; conditions: SW-837 (CRC, Epithelial); KRAS inhibitor in combination with pemigatinib; 5 days
Method: as §3, §5

[8] = tested on: Calu-1; test: as above; conditions: Calu-1 (Lung, Mesenchymal); KRAS inhibitor in combination with pemigatinib; 5 days
Method: as §3

[9] = tested on: A427 cells; test: siRNA FGFR knockdown plus KRAS G12D inhibitor, Cell Titer Glo proliferation; conditions: FGFR1 isoform knocked down; 120 h
Method: To further evaluate the KRAS/FGFR combination mechanism of action, siRNA FGFR knockdown experiments were conducted in A427 cells, followed by treatment with KRAS G12D inhibitors Compound 5, Compound 6, and Compound 7. Knockdown efficiency was assessed by Western blot (FIG. 13A) and its effect was measured by cell proliferation inhibition (FIGS. 13B-G). Initially, the effect of single FGFR isoforms knockdown in combination with KRAS G12D inhibitors Compound 5 (FIG. 13B), Compound 6 (FIG. 13D) and Compound 7 (FIG. 13F) was assessed. […] In addition, combining FGFR1 knockdown with knockdown of additional FGFR isoforms further increased the effect of KRAS G12D inhibitors (FIGS. 13C, E and G)
as §1, with “or combining lx siRNA buffer” for “or combining 1× siRNA buffer”, “dilution in 1× siRNA buffer.” for “dilution in 1X siRNA buffer.”, “reagent (25 μL per well)” for “reagent (25 per well)”
For plating in 96-well pates, 2000 A427 cells per well in 100 !IL of medium were prepared. The prepared cells (100 !IL per well) were added to each well of the 96-well plate and incubated at 48 h.
as §2, with “5μM” for “5 μM”, “After this time, Cell Titer Glo reagent is reconstituted and 100 μL of reagent was added per well.” left out

[10] = FGFR inhibitor in combination with Cmpd 3
[11] = KRAS inhibitor in combination with pemigatinib

Structure (SMILES)	Avg. Bliss Score [1, 10]	Avg. Bliss Score [2, 10]	Avg. Bliss Score [3]	Avg. Bliss Score [4, 10]	inhibition of A427 cell proliferation after siRNA knockdown [9]	other results
CCN1CCN(c2ccc(Nc3cc(N(C)C(=O)Nc4c(Cl)c(OC)cc(OC)c4Cl)ncn3)cc2)CC1 [BGJ398]	−0.8	11.2	31.9	7.5	–	–
CN(C)C1(C)CN(c2nc3c(F)c(-c4ccc(F)c5cccnc45)c(C(F)(F)F)cc3c3c2nnn3[C@H]2CCN(C(=O)/C=C/CF)[C@H](CC#N)C2)C1 [Compound 3, 2-((2S,4S)-4-(4-(3-(dimethylamino)-3-methylazetidin-1-yl)-6-fluoro-7-(5-fluoroquinolin-8-yl)-8-(trifluoromethyl)-1H-[1,2,3]triazolo[4,5-c]quinolin-1-yl)-1-((E)-4-fluorobutenoyl)piperidin-2-yl)acetonitrile]	–	–	–	–	–	Avg. Bliss Score [5]: 5.8; Avg. Bliss Score [1, 11]: 3.8; Avg. Bliss Score [2, 11]: 28.5; inhibition of LU99 cell proliferation after siRNA knockdown [6]: higher inhibition in proliferation; Avg. Bliss Score [7]: 0.9; Avg. Bliss Score [8]: 8.7; Avg. Bliss Score [4, 11]: 18.6
C=CC(=O)N1CC[C@H](n2ncc3c(N4CC(N(C)C)C4)nc4c(F)c(-c5c(C)c(Cl)cc6[nH]ncc56)c(Cl)cc4c32)C[C@H]1CC#N [Compound 4, 2-((2S,4S)-1-acryloyl-4-(8-chloro-7-(6-chloro-5-methyl-1H-indazol-4-yl)-4-(3-(dimethylamino)azetidin-1-yl)-6-fluoro-1H-pyrazolo[4,3-c]quinolin-1-yl)piperidin-2-yl)acetonitrile]	–	–	–	–	–	Avg. Bliss Score [5]: 4.7; Avg. Bliss Score [1, 11]: −3; Avg. Bliss Score [2, 11]: 30; Avg. Bliss Score [7]: −11.7; Avg. Bliss Score [8]: −9.9; Avg. Bliss Score [4, 11]: 17
Cc1cc2c(-n3cncn3)nc3c(F)c(-c4cc(O)cc5ccc(F)cc45)c(CCC#N)cc3c2n1[C@H]1[C@H]2CN[C@@H]1C2 [Compound 5, 3-(1-((1R,4R,5S)-2-Azabicyclo[2.1.1]hexan-5-yl)-6-fluoro-7-(7-fluoro-3-hydroxynaphthalen-1-yl)-2-methyl-4-(1H-1,2,4-triazol-1-yl)-1H-pyrrolo[3,2-c]quinolin-8-yl)propanenitrile]	–	–	–	–	higher inhibition in proliferation compared to controls	–
CC(=O)N1CCC[C@@H]1c1cc2c(O[C@@H](C)[C@@H]3CCCN3C)nc3c(F)c(-c4cccc5c4C(C#N)CCC5)c(C)cc3c2n1[C@H]1[C@H]2CN[C@@H]1C2 (stereo partly shown) [Compound 6]	–	–	–	–	higher inhibition in proliferation compared to controls	–
CCOc1nc2c(F)c(-c3cc(O)cc4ccccc34)c(CCC#N)cc2c2c1cc(CN1CCN(CC)CC1=O)n2[C@H]1[C@H]2CN[C@@H]1C2 [Compound 7]	–	–	–	–	higher inhibition in proliferation compared to controls	–
COc1cc(OC)cc(N(CCNC(C)C)c2ccc3ncc(-c4cnn(C)c4)nc3c2)c1 [Erdafitinib]	4.4	12.9	34.7	7.9	–	–
C=CC(=O)N1CC[C@H](n2nc(C#Cc3cc(OC)cc(OC)c3)c3c(N)ncnc32)C1 [TAS-120]	3.3	17.4	22	6.6	–	–
